From patent US12150973B2, “OCA-B peptide conjugates and methods of treatment” (priority 2018, dated 2024)

What was measured:
primary CD4 T cells = assay: Il2 and Ifng expression in restimulated primary CD4 T cells (RT-qPCR); assay type: cell-based
Description: (§1) FIGS. 3A-D show OCA-B inhibitors and results using these peptides in primary CD4 T cells and in a NOD mouse model. […] Peptides #2 (SEQ ID NO: 2) and #3 (SEQ ID NO: 3) show efficacy. Arrows indicate position of mutant in FIG. 2C. Below: Il2 expression in primary CD4 T cells treated with 25 μM peptide #2 measured by RT-qPCR. […] In these animals, most pancreatic beta function is lost, and the diabetes arises from autoimmune inflammation (insulitis) in the pancreas, making the remaining beta cells nonfunctional.
Disclosed herein are methods that can be carried out to determine the efficacy of one or more peptides for their ability to block the interaction of OCA-B and Jmjd1a or Oct1. In some aspects, the method can be, for low-throughput studies, treating primary human or mouse CD4 T cells that have been previously stimulated and rested in culture with the test peptide (10-50 μM), and re-stimulating cells with CD3/CD28 antibodies in the presence of inhibitor. Efficacy can be determined by suppression of e.g., Il2 gene expression in T cells receiving a second stimulation, phenocopying the OCA-B germline deficient mouse (as shown in FIG. 3A). […]

CD4 T cell = assay: Viability, morphology and expansion of peptide-treated CD4 T cells; assay type: cell-based; details: 25 μM peptide
From the text: Peptides were designed overlapping the OCA-B surface responsible for Jmjd1a binding, and were synthesized as Tat-fusions for membrane permeability (FIG. 3A). […] Treated cells show no changes in viability, morphology or expansion (not shown). Peptide #2 was used for subsequent experiments.

female NOD mice = assay: NOD mouse model of newly manifested type 1 diabetes; assay type: in vivo; details: for pancreatic T cell infiltration (total numbers and percentages): flow cytometry; for pancreatic T cell infiltration (total numbers and percentages) / elevated blood glucose: 12 hr after final injection; for elevated blood glucose: female 14-18 week-old NOD mice, glucose newly risen above 225 mg/dL, three intravenous injections of 20 mg/kg spaced by 12 hr
Description: as §1
Blood collection occurred prior to 2nd injection and 12 hr after final injection. […] Il2 gene expression was measured by TaqMan RT-qPCR. […] FIGS. 9D and E show similar analysis conducted using pancreatic lymph nodes (PLNs).
The peptide was synthesized and purified for an in vivo experiment. T1D onset in NOD mice is spontaneous and acute, allowing the administration of the peptide as symptoms arise. Female 14-18 week-old NOD mice whose glucose levels were newly-risen above 225 mg/dL but were still below 275 mg/dL were treated with three intravenous injections of 20 mg/kg peptide or Tat-only peptide control. The peptide half-life in serum was predicted to be ˜5 hr, and therefore the injections were spaced by 12 hr. Twelve hours after the final injection, blood glucose was collected and flow cytometry performed on the pancreas and pancreatic lymph nodes (PLNs). Strikingly, the inhibitor reversed elevated blood glucose (FIG. 3B; also see, FIG. 9), pancreatic T cell infiltration (both total numbers and percentages, FIG. 3C and not shown; also see, FIG. 9) and pro-inflammatory IFNγ and IL-17A cytokine production (not shown). Control peptide at the same concentration had no effect. […] OCA-B levels in B cells are at least 50-fold higher than in T cells (Immgen), making it likely that the observed effects are due to competitive inhibition in T cells. […] This peptide was used as a proto-drug to assess function and possible side effects.

[1] = NOD mice, three intravenous injections of 20 mg/kg, pancreas
[2] = NOD mice, three intravenous injections of 20 mg/kg, PLNs

| Substance | Il2 and Ifng expression following CD4 T cell restimulation (primary CD4 T cells; 25 μM peptide, Tat-fusion, compared with OCA-B null phenotype) | efficacy (Il2 expression in primary CD4 T cells) (primary CD4 T cells; peptides synthesized as Tat fusions, FIG. 3A) | changes in viability, morphology or expansion of treated cells (CD4 T cell) | pro-inflammatory IFNγ and IL-17A cytokine production (female NOD mice; [1]) | pancreatic T cell infiltration (total numbers and percentages) (female NOD mice; [1]) | T1D progression / emergence (female NOD mice; NOD mouse model, three injections, short time interval) | elevated blood glucose (female NOD mice) | T cell numbers or percentages in pancreatic lymph nodes (PLNs) (female NOD mice; [2]) | pro-inflammatory cytokine production in pancreatic lymph nodes (PLNs) (female NOD mice; [2]) |
| --- | --- | --- | --- | --- | --- | --- | --- | --- | --- |
| ARPYQGVRVKEPVKELLRRKRGH [Peptide #3, OCA-B fragment synthesized as Tat fusion] | phenocopies the OCA-B null phenotype | show efficacy | no changes |  |  |  |  |  |  |
| GRKKRRQRRRGY [Tat-only peptide control, reference compound] |  |  |  | no effect | no effect | progress | no effect |  |  |
| VKELLRRKRGH-GSG(linker)-GRKKRRQRRRGY(Tat) (VKELLRRKRGHGSGGRKKRRQRRRGY) [SEQ ID NO: 10, OCA-B/Jmjd1a interface peptide fused to Tat peptide through a GSG linker] |  |  |  |  | reduction |  | strong efficacy | unaffected | unaffected |
